Measured values taken from paper PMC6199744, “Development of Chemical Proteomics for the Folateome and Analysis of the Kinetoplastid Folateome” (ACS Infectious Diseases, 2018).
Read-outs that look alike come from different tables or passages of the source.

Assays:
Format in all cases: binding
[1] = target: T1, HeLa cell extract proteins (Homo sapiens, UniProt P00558)
T1 construct: endogenous in cells; host or cells: HeLa cell extract
T1 sequence (P00558 1-417): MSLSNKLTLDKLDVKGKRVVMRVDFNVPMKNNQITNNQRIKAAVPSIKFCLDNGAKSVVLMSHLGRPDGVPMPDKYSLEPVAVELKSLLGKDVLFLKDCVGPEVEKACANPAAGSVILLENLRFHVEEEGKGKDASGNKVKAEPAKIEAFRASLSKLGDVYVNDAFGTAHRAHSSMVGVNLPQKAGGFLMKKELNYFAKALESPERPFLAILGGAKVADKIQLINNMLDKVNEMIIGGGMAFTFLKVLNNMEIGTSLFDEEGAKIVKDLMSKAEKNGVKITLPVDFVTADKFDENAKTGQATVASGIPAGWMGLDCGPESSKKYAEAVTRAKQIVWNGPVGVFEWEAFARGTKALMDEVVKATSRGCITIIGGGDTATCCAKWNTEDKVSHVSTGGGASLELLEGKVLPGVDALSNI

[2] = target: T2, HeLa cell extract proteins (Homo sapiens, UniProt P10599)
T2 construct: endogenous in cells; host or cells: HeLa cell extract
T2 sequence (P10599 1-105): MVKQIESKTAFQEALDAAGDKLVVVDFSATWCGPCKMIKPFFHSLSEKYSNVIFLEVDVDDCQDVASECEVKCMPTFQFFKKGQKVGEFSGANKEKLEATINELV

[3] = target: T3, HeLa cell extract proteins (Homo sapiens, UniProt P17980)
T3 construct: endogenous in cells; host or cells: HeLa cell extract
T3 sequence (P17980 whole entry): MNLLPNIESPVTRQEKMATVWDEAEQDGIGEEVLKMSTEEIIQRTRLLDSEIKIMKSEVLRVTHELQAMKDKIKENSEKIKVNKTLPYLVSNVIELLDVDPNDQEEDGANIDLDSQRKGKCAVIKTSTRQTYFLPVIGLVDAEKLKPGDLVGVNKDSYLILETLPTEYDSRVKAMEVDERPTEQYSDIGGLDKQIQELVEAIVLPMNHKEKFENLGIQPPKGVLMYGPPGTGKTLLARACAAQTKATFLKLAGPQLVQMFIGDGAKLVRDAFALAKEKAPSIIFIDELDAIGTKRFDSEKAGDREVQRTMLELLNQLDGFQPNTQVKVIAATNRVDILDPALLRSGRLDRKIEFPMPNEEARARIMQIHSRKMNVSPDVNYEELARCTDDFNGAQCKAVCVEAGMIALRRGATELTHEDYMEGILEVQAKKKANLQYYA

[4] = target: T4, HeLa cell extract proteins (Homo sapiens, UniProt P51398)
T4 construct: endogenous in cells; host or cells: HeLa cell extract

[5] = target: T5, HeLa cell extract proteins (Homo sapiens, UniProt Q8N1F7)
T5 construct: endogenous in cells; host or cells: HeLa cell extract
T5 sequence (Q8N1F7 1-819): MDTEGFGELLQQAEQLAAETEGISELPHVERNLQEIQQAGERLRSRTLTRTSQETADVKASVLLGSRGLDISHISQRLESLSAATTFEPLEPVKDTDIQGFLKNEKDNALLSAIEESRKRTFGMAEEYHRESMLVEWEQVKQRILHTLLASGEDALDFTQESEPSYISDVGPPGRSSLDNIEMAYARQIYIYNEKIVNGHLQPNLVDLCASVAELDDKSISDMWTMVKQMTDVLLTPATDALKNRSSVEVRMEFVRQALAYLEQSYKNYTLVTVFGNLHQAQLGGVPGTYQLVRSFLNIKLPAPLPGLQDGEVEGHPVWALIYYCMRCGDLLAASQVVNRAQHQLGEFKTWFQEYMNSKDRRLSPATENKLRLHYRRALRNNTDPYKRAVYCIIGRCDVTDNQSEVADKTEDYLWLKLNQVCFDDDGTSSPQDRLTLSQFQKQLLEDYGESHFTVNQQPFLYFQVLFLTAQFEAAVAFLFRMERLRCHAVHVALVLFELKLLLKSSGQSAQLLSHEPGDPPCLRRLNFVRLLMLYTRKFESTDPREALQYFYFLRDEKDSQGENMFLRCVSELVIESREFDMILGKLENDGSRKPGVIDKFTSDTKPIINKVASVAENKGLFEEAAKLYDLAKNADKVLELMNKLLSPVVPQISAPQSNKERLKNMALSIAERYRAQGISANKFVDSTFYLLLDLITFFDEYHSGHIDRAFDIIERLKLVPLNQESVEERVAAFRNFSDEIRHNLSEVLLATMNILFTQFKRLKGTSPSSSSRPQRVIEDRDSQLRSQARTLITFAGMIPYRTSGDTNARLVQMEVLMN

[6] = target: T6, HeLa cell extract proteins (Homo sapiens, UniProt Q96AE4)
T6 construct: endogenous in cells; host or cells: HeLa cell extract
T6 sequence (Q96AE4 1-644): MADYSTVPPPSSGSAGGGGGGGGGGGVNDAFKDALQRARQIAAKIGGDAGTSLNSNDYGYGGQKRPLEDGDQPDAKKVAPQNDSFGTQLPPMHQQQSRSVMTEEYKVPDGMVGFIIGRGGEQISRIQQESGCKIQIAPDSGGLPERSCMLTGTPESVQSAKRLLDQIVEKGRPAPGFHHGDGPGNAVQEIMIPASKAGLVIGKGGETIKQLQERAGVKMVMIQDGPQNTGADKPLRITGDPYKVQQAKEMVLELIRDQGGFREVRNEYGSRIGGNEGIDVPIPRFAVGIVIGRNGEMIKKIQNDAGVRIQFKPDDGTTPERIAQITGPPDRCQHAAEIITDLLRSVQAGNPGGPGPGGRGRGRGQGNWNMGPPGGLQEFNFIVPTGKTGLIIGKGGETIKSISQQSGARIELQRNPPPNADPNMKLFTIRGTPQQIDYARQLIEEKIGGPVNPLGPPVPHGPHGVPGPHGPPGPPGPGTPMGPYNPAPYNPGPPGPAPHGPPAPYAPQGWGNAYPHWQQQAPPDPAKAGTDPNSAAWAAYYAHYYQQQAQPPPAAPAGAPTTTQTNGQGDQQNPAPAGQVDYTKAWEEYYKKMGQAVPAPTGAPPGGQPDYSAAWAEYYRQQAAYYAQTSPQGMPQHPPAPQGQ

[7] = target: T7, HeLa cell extract proteins (Homo sapiens, UniProt Q96JN8)
T7 construct: endogenous in cells; host or cells: HeLa cell extract
T7 sequence (Q96JN8 whole entry): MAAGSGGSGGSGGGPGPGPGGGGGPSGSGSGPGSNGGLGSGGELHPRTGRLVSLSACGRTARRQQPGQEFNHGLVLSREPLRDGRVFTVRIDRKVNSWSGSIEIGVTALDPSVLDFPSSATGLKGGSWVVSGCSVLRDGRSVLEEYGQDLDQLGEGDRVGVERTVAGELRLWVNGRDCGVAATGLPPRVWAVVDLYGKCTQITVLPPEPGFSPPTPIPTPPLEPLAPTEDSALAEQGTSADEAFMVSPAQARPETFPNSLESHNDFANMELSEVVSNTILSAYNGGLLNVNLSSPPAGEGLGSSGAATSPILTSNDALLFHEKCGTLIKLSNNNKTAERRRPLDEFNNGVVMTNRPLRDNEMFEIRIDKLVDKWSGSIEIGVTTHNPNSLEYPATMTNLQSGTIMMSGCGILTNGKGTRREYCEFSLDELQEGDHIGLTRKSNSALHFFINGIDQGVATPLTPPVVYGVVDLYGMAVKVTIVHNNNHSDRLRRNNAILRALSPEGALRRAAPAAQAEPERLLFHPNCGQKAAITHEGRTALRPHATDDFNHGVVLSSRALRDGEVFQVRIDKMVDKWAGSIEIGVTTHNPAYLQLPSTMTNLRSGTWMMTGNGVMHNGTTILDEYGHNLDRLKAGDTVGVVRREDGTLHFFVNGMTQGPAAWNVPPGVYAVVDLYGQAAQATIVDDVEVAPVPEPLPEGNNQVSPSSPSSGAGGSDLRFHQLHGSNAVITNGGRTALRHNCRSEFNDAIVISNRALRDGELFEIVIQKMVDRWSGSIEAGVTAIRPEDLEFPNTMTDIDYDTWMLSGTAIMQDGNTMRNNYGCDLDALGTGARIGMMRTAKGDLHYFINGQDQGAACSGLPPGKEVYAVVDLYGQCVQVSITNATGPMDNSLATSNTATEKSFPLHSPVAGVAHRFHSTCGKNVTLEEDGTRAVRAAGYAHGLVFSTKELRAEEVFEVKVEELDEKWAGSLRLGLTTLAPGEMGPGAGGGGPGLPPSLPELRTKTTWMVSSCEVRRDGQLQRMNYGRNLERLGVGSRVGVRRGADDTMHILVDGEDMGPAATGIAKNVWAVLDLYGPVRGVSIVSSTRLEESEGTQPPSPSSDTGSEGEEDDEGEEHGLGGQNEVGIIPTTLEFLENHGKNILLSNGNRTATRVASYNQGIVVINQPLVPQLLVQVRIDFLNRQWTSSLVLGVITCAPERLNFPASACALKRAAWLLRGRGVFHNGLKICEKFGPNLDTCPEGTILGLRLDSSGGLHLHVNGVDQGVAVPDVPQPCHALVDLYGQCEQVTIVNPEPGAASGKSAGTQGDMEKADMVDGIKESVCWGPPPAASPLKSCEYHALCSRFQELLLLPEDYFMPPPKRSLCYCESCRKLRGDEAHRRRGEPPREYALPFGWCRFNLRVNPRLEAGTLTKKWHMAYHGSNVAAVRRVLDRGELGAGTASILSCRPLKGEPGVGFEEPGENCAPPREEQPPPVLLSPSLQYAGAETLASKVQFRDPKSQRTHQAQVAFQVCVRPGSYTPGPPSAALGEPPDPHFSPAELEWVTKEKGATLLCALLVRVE

[8] = target: T8, HeLa cell extract proteins (Homo sapiens, UniProt Q9UKU7)
T8 construct: endogenous in cells; host or cells: HeLa cell extract
T8 sequence (Q9UKU7 23-415): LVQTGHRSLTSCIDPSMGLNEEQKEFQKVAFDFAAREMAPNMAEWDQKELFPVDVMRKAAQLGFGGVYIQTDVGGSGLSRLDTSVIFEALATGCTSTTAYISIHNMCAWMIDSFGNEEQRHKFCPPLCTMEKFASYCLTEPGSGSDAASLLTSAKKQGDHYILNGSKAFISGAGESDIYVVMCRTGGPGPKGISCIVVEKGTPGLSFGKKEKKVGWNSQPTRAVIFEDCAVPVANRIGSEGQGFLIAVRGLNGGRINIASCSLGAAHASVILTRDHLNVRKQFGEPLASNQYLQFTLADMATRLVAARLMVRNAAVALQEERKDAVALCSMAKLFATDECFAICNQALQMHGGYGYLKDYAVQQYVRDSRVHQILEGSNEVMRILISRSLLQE

[9] = HeLa, protein PGK1 (PHOSPHOGLYCERATE KINASE 1.)

Row | Compound | fold changes relative to vehicle control ([2]; captured protein TXN, HeLa) | fold changes relative to vehicle control ([3]; protein PSMC3, HeLa) | fold changes relative to vehicle control ([4]; protein DAP3, HeLa) | fold changes relative to vehicle control ([5]; captured protein NUP93, HeLa) | fold changes relative to vehicle control ([6]; protein FUBP1, HeLa) | fold changes relative to vehicle control ([7]; protein KIAA1787, HeLa) | fold changes relative to vehicle control ([8]; protein ACAD8, HeLa) | fold changes relative to vehicle control ([1]; HeLa, protein PGK1) | fold changes relative to vehicle control ([2]; HeLa, protein TXN) | fold changes relative to vehicle control ([4]; HeLa, captured protein DAP3) | fold changes relative to vehicle control ([5]; protein NUP93, HeLa) | fold changes relative to vehicle control ([6]; HeLa, captured protein FUBP1) | fold changes relative to vehicle control ([7]; HeLa, protein KIAA1787) | fold changes relative to vehicle control ([8]; HeLa, protein ACAD8) | other results
1 | Nc1nc2cccc(-c3ccccc3)c2n1Cc1ccc(Cl)c(Cl)c1 [compound 3] | 1.12 | 1.03 | 1 | 0.96 | 1 | 1.09 | 1.13 | – | – | – | – | – | – | – | fold changes relative to vehicle control ([1]; HeLa, protein PGK1 (PHOSPH[…] 1.)): 0.8 fold
2 | CCCCCCOc1ccc(Cc2cnc(N)nc2N)cc1 [compound 1] | 0.95 | 1.24 | 1.27 | 0.87 | 1.24 | 1.03 | 1.11 | – | – | – | – | – | – | – | fold changes relative to vehicle control [1, 9]: 1.5 fold
3 | NCCCNc1ccc(C(=O)NC(CCC(=O)O)C(=O)O)cc1 (centres unmarked) [compound 7] | – | 1.03 | – | – | – | – | – | 0.92 | 1.33 | 0.94 | 0.9 | 1 | 1.21 | 0.77 | –
4 | CCCCCCOc1cccc(Cc2cnc(N)nc2N)c1 [compound 2] | 1.18 | 1.46 | 1.16 | 0.96 | 1.48 | 0.98 | 1.19 | – | – | – | – | – | – | – | fold changes relative to vehicle control [1, 9]: 2.59 fold
5 | NCCOCCOCC(=O)Nc1nc2ncc(CNc3ccc(C(=O)NC(CCC(=O)O)C(=O)O)cc3)nc2c(=O)[nH]1 (centres unmarked) [compound 6] | – | 1.17 | – | – | – | – | – | 1.28 | 1.28 | 0.84 | 1.01 | 1.28 | 1.11 | 0.75 | –
6 | Nc1nc2[nH]cc(CCc3ccc(C(=O)N[C@@H](CCC(=O)O)C(=O)O)cc3)c2c(=O)[nH]1 [PTX, pemetrexed] | – | – | – | – | – | – | – | – | – | – | – | – | – | – | fold changes relative to vehicle control [1]: 1.11; fold changes relative to vehicle control [2]: 1.13; fold changes relative to vehicle control [3]: 1; fold changes relative to vehicle control [4]: 0.9; fold changes relative to vehicle control [5]: 0.91; fold changes relative to vehicle control [6]: 1.17; fold changes relative to vehicle control [7]: 1.07; fold changes relative to vehicle control [8]: 0.83
7 | Nc1nc2c(c(=O)[nH]1)N(C=O)C(CNc1ccc(C(=O)N[C@@H](CCC(=O)O)C(=O)O)cc1)CN2 (some centres unmarked) [LEU, leucovorin] | – | 1.02 | – | – | – | – | – | 1.1 | 1.05 | 0.98 | 0.84 | 1.09 | 1.16 | 0.79 | –
